This is an account of results in US7151104B2, “Pyrazolopyridines as cyclin dependent kinase inhibitors” (Schering Corporation, priority 2002, dated 2006).

What is called IC50 is the concentration at which inhibition is half-maximal.

In this test the target is T1, Cyclin E/CDK2 (Homo sapiens, UniProt P24941).
T1 construct: The expressed protein was approximately 34 kDa in size; made in house; host or cells: SF9 insect cells (baculovirus co-infection)
In words: Cyclin E/CDK2 in vitro kinase assay (SPA, 33P-ATP, biotinylated Histone H1 peptide). The format is biochemical. The settings on record: recombinant cyclin E/CDK2 from SF9 cells; 8 point serial dilutions in duplicate; 1 hour at room temperature.

As to `Clc1cnn2c(NCc3cncnc3)cc(-c3ccccc3)cc12`, the IC50 is 78 nM.
